Experimental data as given in patent US20030082752A1, “Enzymatic process for producing GDP-alpha-D-mannose, a GDP mannose pyrophosphorylase and phosphomannomutase suitable for that process, the extraction of the said enzymes, and an enzyme test” (priority 1995, published 2003).
Read-outs that look alike come from different tables or passages of the source.

What was measured:
[1] = tested on: pyrophosphorylases in Escherichia coli BL21(DE3)pLysSpERJ-1 raw extract; assay: NUSSA screening of pyrophosphorylases in E. coli raw extract; assay type: biochemical; details: 20 μg/mL raw extract
Method: (§1) The total volume was 200 μL.
2) Example: Use of NUSSA for screening pyrophoshorylases in two different enzyme sources: a) Escherichia coli BL21(DE3)pLysSpERJ-1
(§2) For using the test, the PPIPFK has to be purified. As a simple and easily available enzyme source, potatoes were selected (Solanum tuberosum L.) . The purification was carried out according to the method described by van Schaftingen et al., 1982 in Eur. J. Biochem., Vol. 129, pp. 191-195. The enzyme (PPIPFK) was stored in 25% glycerin at -20° C.
(§3) Escherichia Coli BL21(DE3)pLysSpERJ-1 was cultured and broken up as described above. The resulting raw homogenate was centrifuged at 10,000 rpm for 2 min, and at 20° C., then used in the enzyme test (21.02 mg/mL). The rice was broken up according to Elling, 1993, German Patent DE 4,221,595 Cl, at 10,000 rpm, 10 min, 20° C., and it was used as a raw extract (4.26 mg/mL) in the enzyme screening. The substrates tested were: […]
(§4) a) Nucleoside triphosphate: ATP, CTP, GTP, UTP, dTTP, each at 1 mM in the test with glucose-1-phosphate (2.5 mM) b) Nucleoside triphosphate UTP (1 mM)
(§5) Sugar-1-phosphate, each at 2.5 mM in the test

[2] = target: Salmonella enterica group B (formerly Salmonella typhimurium LT2) GDP-mannose pyrophosphorylase (rfb M, EC 2.7.7.13), recombinant from E. coli BL21(DE3)pLysSpER (Salmonella typhimurium, UniProt P26404)
Method: (§6) GTP was used at concentrations of 0.01-10 mM (FIG. 7).
as §1

[3] = target: T1, GDP-mannose pyrophosphorylase (Salmonella typhimurium, UniProt P26404); assay type: biochemical, Salmonella enterica, group B; details: for kmax value: GTP varied at 0.08 mM M-1-P, M-1-P varied at 2 mM GTP
T1 construct: made in house; host or cells: Escherichia coli BL21(DE3)pLysS with pERJ-1 (pT7-6/rfbM)
Method: as §6
b) Nucleoside triphosphate: GTP
Sugar-1-phosphates: Glucose-1-P, N-acetylglucosamine-1-P-, glucosamine-1-P, galactose-1-P, galactosamine-1-P, N-acetylgalactosamine-1-P, glucuronic acid-1-P, galacturonic acid-1-P, xylose-1-P, mannose-1-P
as §1

[4] = tested on: pyrophosphorylases in rice (Oryza sativa L.) raw extract; assay: NUSSA screening of pyrophosphorylases in rice raw extract; assay type: biochemical
Method: as §1
2) Example: Use of NUSSA for screening pyrophoshorylases in two different enzyme sources: b) Rice (Oryza sativa L.)
as §2, §3, §4, §5

[5] = tested on: O=P(O)(O)O[C@H]1O[C@H](CO)[C@@H](O)[C@H](O)[C@@H]1O; assay: purified protein, by the assay type; details: other: mannose-1-phosphate 0.002-0.6 mM, GTP constant 2 mM, NUSSA, Tris-HCl pH 8
[6] = tested on: Nc1nc2c(ncn2[C@@H]2O[C@H](COP(=O)(O)OP(=O)(O)OP(=O)(O)O)[C@@H](O)[C@H]2O)c(=O)[nH]1; assay: purified protein, by the assay type; details: other: GTP 0.01-10 mM, mannose-1-phosphate constant 0.08 mM, NUSSA, Tris-HCl pH 8
Description: (§7) In the manner described below, it is possible to determine, by the use of the substrates (sugar-1-phosphates or sugar in the case of neuraminic acid) and nucleoside triphosphates any pyrophosphorylase activity which presents an activity in the test mixture of≧0.2 mU/mL.
The enzyme test (Nucleotidyl transferase substrate screening assay ‘NUSSA’) is based on the fact that in the nucleotidyl transferase reaction (EC 2.7-7), pyrophosphate is produced with a pyrophosphate-dependent phosphofructokinase (PPiPFK from plants or bacteria EC 2.7.1.90) with fructose-6-phosphate and in the presence of fructose-2,6-diphosphate to make fructose-1,6-diphosphates. This product is cleaved with an aldolase to form dihydroxyacetone phosphate (DHAP) and glycerin-3-phosphate (GAP). From glycerinaldehyde-3-phosphate, dihydroxyacetone phosphate is produced with the triose phosphate isomerase. Finally, dihydroxyacetone phosphate is reduced with glycerin-3-phosphate dehydrogenase to glycerin-3-phosphate (G-3-P) with NADH. 2 mol of NADH are used per mol of pyrophosphate; this consumption can be monitored by photometry. [drawing 3]
GTP was used at concentrations of 0.01-10 mM (FIG. 7). […]
(§8) The total volume was 200 μL. The preparations were measured in a Titertek photometer molecular device, Munich, by photometry. […]

[7] = target: Salmonella enterica group B (formerly Salmonella typhimurium LT2) GDP-mannose pyrophosphorylase (rfb M, EC 2.7.7.13), recombinant from E. coli BL21(DE3)pLysSpERJ-1 (Salmonella typhimurium, UniProt P26404); assay: biochemical
Description: as §7
The enzyme test (Nucleotidyl transferase substrate screening assay ‘NUSSA’) is based on the fact that in the nucleotidyl transferase reaction (EC 2.7-7), pyrophosphate is produced with a pyrophosphate-dependent phosphofructokinase (PPiPFK from plants or bacteria EC 2.7.1.90) with fructose-6-phosphate and in the presence of fructose-2,6-diphosphate to make fructose-1,6-diphosphates. This product is cleaved with an aldolase to form dihydroxyacetone phosphate (DHAP) and glycerin-3-phosphate (GAP). From glycerinaldehyde-3-phosphate, dihydroxyacetone phosphate is produced with the triose phosphate isomerase. Finally, dihydroxyacetone phosphate is reduced with glycerin-3-phosphate dehydrogenase to glycerin-3-phosphate (G-3-P) with NADH. 2 mol of NADH are used per mol of pyrophosphate; this consumption can be monitored by photometry.
3) Influence of GDP-mannose on the synthesis
The concentration of GTP was varied between 0.08mM and 6 mm.
The GDP-mannose was used at 0μM, 50 μM, and 100 μM in the test. […]
as §8

[8] = literature, cited from earlier work
[9] = NTP 1 mM with α-D-glucose-1-phosphate 2.5 mM
[10] = α-D-sugar-1-phosphate 2.5 mM with GTP 1 mM
[11] = α-D-sugar-1-phosphate 2.5 mM with UTP 1 mM
[12] = NTP 1 mM with α-D-glucose-1-phosphate 2.5 mM, 1.06 μg/mL-0.14 mg/mL raw extract

T1 sequence (P26404 whole entry): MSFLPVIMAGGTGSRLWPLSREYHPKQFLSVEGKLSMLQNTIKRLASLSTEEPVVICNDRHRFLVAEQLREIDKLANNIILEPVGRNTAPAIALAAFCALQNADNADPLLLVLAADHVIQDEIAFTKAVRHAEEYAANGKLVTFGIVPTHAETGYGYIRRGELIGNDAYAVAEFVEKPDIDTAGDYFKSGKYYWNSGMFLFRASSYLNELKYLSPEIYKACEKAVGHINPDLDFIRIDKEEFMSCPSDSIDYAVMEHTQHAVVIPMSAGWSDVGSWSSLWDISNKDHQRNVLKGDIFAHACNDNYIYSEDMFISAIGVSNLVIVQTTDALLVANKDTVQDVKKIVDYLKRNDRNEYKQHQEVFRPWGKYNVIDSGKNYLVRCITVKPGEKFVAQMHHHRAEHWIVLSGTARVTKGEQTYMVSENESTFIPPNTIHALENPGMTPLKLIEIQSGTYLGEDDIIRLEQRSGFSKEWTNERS
Chain of Salmonella enterica group B (formerly Salmonella typhimurium LT2) GDP-mannose pyrophosphorylase (rfb M, EC 2.7.7.13), recombinant from E. coli BL21(DE3)pLysSpERJ-1 (P26404 whole entry): as above
Chain of Salmonella enterica group B (formerly Salmonella typhimurium LT2) GDP-mannose pyrophosphorylase (rfb M, EC 2.7.7.13), recombinant from E. coli BL21(DE3)pLysSpER (P26404 whole entry): as above

Nc1ncnc2c1ncn2[C@@H]1O[C@H](COP(=O)(O)OP(=O)(O)OP(=O)(O)O)[C@@H](O)[C@H]1O [ATP]
Specific activity of pyrophosphorylases, E. coli [1, 9]: 2.76 mU/mg

Nc1nc2c(ncn2[C@@H]2O[C@H](COP(=O)(O)OP(=O)(O)OP(=O)(O)O)[C@@H](O)[C@H]2O)c(=O)[nH]1 [GTP]
kmax value (GTP) ([2]; pH 8): 2.4 U/mg | kmax value [3]: 2.4 U/mg

O=P(O)(O)O[C@H]1O[C@H](CO)[C@@H](O)[C@H](O)[C@@H]1O [M-1-P, mannose-1-phosphate]
Specific activity of pyrophosphorylases, rice [4, 10]: 1.51 mU/mg | Specific activity of pyrophosphorylases, E. coli [1, 10]: 3.41 mU/mg | kmax value (M-1-P) ([2]; vmax, mannose-1-phosphate 0.002-0.6 mM, GTP constant 2 mM, NUSSA, Tris-HCl pH 8): 1.8 U/mg | kmax value [3]: 1.8 U/mg

N[C@H]1[C@H](OP(=O)(O)O)O[C@H](CO)[C@@H](O)[C@@H]1O [α-D-Glucosamin-1-P, α-D-Glucosamine-1-P]
Specific activity of pyrophosphorylases, E. coli [1, 11]: 2.75 mU/mg

Salmonella enterica group B (formerly Salmonella typhimurium LT2) GDP-mannose pyrophosphorylase (rfb M, EC 2.7.7.13), recombinant from E. coli BL21(DE3)pLysSpERJ-1 (Salmonella enterica subsp. enterica serovar Typhimurium str. LT2)
Km [5]: 0.01 mm mm | Km [6]: 0.2 mM mM

O=C(O)[C@H]1O[C@H](OP(=O)(O)O)[C@H](O)[C@@H](O)[C@H]1O [α-D-Galacrurons{overscore (a)}ure-1-P, α-D-Galacturonic acid-1-P]
Specific activity of pyrophosphorylases, rice [4, 11]: 2.94 mU/mg | Specific activity of pyrophosphorylases, E. coli [1, 11]: 3.66 mU/mg

Cc1cn([C@H]2C[C@H](O)[C@@H](COP(=O)(O)OP(=O)(O)OP(=O)(O)O)O2)c(=O)[nH]c1=O [dTTP]
Specific activity of pyrophosphorylases, rice [4, 12]: 5.98 mU/mg | Specific activity of pyrophosphorylases, E. coli [1, 9]: 10.32 mU/mg

O=P(O)(O)O[C@H]1O[C@H](CO)[C@H](O)[C@H](O)[C@H]1O [α-D-Galactose-1-P]
Specific activity of pyrophosphorylases, rice [4, 11]: 10.41 mU/mg | Specific activity of pyrophosphorylases, E. coli [1, 11]: 1 mU/mg

O=P(O)(O)O[C@H]1OC[C@@H](O)[C@H](O)[C@H]1O [α-D-Xylose-1-P]
Specific activity of pyrophosphorylases, rice [4, 11]: 0.42 mU/mg

N[C@H]1[C@@H](OP(=O)(O)O)O[C@H](CO)[C@H](O)[C@@H]1O [α-D-Galactosamin-1-P]
Specific activity of pyrophosphorylases, rice [4, 11]: 0.25 mU/mg

CC(=O)N[C@H]1[C@@H](OP(=O)(O)O)O[C@H](CO)[C@H](O)[C@@H]1O [α-D-GalNAc-1-P, N-acetylgalactosamine-1-P]
Specific activity of pyrophosphorylases, rice [4, 11]: 0.18 mU/mg

O=c1ccn([C@@H]2O[C@H](COP(=O)(O)OP(=O)(O)OP(=O)(O)O)[C@@H](O)[C@H]2O)c(=O)[nH]1 [UTP]
Specific activity of pyrophosphorylases, rice [4, 12]: 982.40 mU/mg | Specific activity of pyrophosphorylases, E. coli [1, 9]: 214.10 mU/mg

CC(=O)N[C@H]1[C@@H](OP(=O)(O)O)O[C@H](CO)[C@@H](O)[C@@H]1O [α-D-GlcNAc-1, N-acetylglucosamine-1-P-]
Specific activity of pyrophosphorylases, rice [4, 11]: 0.27 mU/mg | Specific activity of pyrophosphorylases, E. coli [1, 11]: 2.02 mU/mg

Nc1ccn([C@@H]2O[C@H](COP(=O)(O)OP(=O)(O)OP(=O)(O)O)[C@@H](O)[C@H]2O)c(=O)n1 [CTP]
Specific activity of pyrophosphorylases, E. coli [1, 9]: 0.75 mU/mg

O=C(O)[C@H]1O[C@H](OP(=O)(O)O)[C@H](O)[C@@H](O)[C@@H]1O [α-D-Glucurons{overscore (a)}ure-1-P, α-D-Glucuronic acid-1-P]
Specific activity of pyrophosphorylases, rice [4, 11]: 14.27 mU/mg | Specific activity of pyrophosphorylases, E. coli [1, 11]: 4.72 mU/mg

Nc1nc2c(ncn2[C@@H]2O[C@H](COP(=O)(O)OP(=O)(O)O[C@H]3O[C@H](CO)[C@@H](O)[C@H](O)[C@@H]3O)[C@@H](O)[C@H]2O)c(=O)[nH]1 [GDP-mannose, GDP-alpha-D-mannose]
Ki [7]: 14.9 µM | Ki ([7]; Ki value, noncompetitive inhibition with respect to M-1-P, mannose-1-phosphate 0.003-0.3 mM, GTP constant 2 mM, 5.67 μg/mL enzyme): 118 µM | type of inhibition with respect to M-1-P ([3]; GTP constant 2 mM, M-1-P 0.003-0.3 mM): noncompetitive inhibition | type of inhibition with respect to GTP ([3]; M-1-P constant 0.08 mM, GTP 0.08-6 mM): competitive inhibition

B1: Pseudomonas aeruginosa (Shinabarger et al 1991): Bifunctional GDP-Man-PP from Pseudomonas aeruginosa with phosphomannose isomerase and pyrophosphorylase activity (protein, UniProt P07874 1-481, looked up)
Alginate biosynthesis protein …: MIPVILSGGSGSRLWPLSRKQYPKQFLALTGDDTLFQQTIKRLAFDGMQAPLLVCNKEHRFIVQEQLEAQNLASQAILLEPFGRNTAPAVAIAAMKLVAEGRDELLLILPADHVIEDQRAFQQALALATNAAEKGEMVLFGIPASRPETGYGYIRASADAQLPEGVSRVQSFVEKPDEARAREFVAAGGYYWNSGMFLFRASRYLEELKKHDADIYDTCLLALERSQHDGDLVNIDAATFECCPDNSIDYAVMEKTSRACVVPLSAGWNDVGSWSSIWDVHAKDANGNVTKGDVLVHDSHNCLVHGNGKLVSVIGLEDIVVVETKDAMMIAHKDRVQDVKHVVKDLDAQGRSETQNHCEVYRPWGSYDSVDMGGRFQVKHITVKPGARLSLQMHHHRAEHWIVVSGTAQVTCDDKTFLLTENQSTYIPIASVHRLANPGKIPLEIIEVQSGSYLGEDDIERLEDVYGRTAEPALQVVAGSR
Specific activity after purification ([8]; after purification): 6.12 U/mg Protein | Specific activities Raw extract ([8]; raw extract): 0.397 U/mg Protein
